The source of these data is EP1054594B1, “INOTROPIC AND DIURETIC EFFECTS OF EXENDIN AND GLP-1” (AMYLIN PHARMACEUTICALS, INC., priority 1998, dated 2007).

Molecules are shown by their SMILES.

Test [1] can be described thus: Diuretic effects of GLP-1 or exendin in anesthetized rats (urine flow, sodium excretion, urinary potassium after intravenous bolus). It counts as in vivo, Male, Harlan Sprague Dawley rats. On the procedure:
Surgical preparation: The preparation used here was as described in Young et al., (Drug Dev Res. 37:231-248, 1996), but modified by the addition of unilateral ureteral cannulation. Anesthesia was induced with 5% halothane, maintained with 2% halothane during surgery and with 0.7 to 1% thereafter. Tracheotomy and cannulation of a femoral artery, saphenous vein and a single ureter were performed. […] The venous line was used for drug administration. Total saline infusion rate was kept at 4 mL/hr.
Observations are expressed as the percent of baseline, defined as the mean of measurements made in the 30 min prior to starting peptide or vehicle infusion. Data are expressed as mean±SEM. n=5-6.
Unilateral urine flow was measured by weighing the 15-minute output of the cannulated ureter. Total urine flow was estimated as twice this amount.
Treatments: To obtain dose-responses, peptides were dissolved in 0.15 M NaCl and administered as 0.1 ml bolus.

A short description of test [2]: Arterial blood pressure and dP/dt in conscious rats by telemetry. In kind it is in vivo, Male, Harlan Sprague Dawley rats. As to conditions: single intraperitoneal (ip) injection (100 µl). The text has this:
Insertion of Transducers: Male, Harlan Sprague Dawley rats were anesthetized with halothane and the abdominal aorta exposed after laparotomy. According to procedures detailed in the "Pressure Telemetry" manual from Data Sciences Inc., pressure transducer/transmitters were secured in place on the abdominal wall with the catheter tip in the abdominal aorta ~2mm above bifurcation. Following closure, the animals then recovered to allow at least 7 days of stable recordings. Baseline data were collected during the 7+ days after surgery.
The transmitted signals were recorded via telemetry and stored on a personal computer. Rate of pressure change, dP/dt, was calculated by software provided by Data Sciences.

Regarding `CC[C@H](C)[C@H](NC(=O)[C@H](Cc1ccccc1)NC(=O)[C@H](CCC(=O)O)NC(=O)[C@H](CCCCN)NC(=O)[C@H](C)NC(=O)[C@H](C)NC(=O)[C@H](CCC(N)=O)NC(=O)CNC(=O)[C@H](CCC(=O)O)NC(=O)[C@H](CC(C)C)NC(=O)[C@H](Cc1ccc(O)cc1)NC(=O)[C@H](CO)NC(=O)[C@H](CO)NC(=O)[C@@H](NC(=O)[C@H](CC(=O)O)NC(=O)[C@H](CO)NC(=O)[C@@H](NC(=O)[C@H](Cc1ccccc1)NC(=O)[C@@H](NC(=O)CNC(=O)[C@H](CCC(=O)O)NC(=O)[C@H](C)NC(=O)[C@@H](N)Cc1c[nH]cn1)[C@@H](C)O)[C@@H](C)O)C(C)C)C(=O)N[C@@H](C)C(=O)N[C@@H](Cc1c[nH]c2ccccc12)C(=O)N[C@@H](CC(C)C)C(=O)N[C@H](C(=O)N[C@@H](CCCCN)C(=O)NCC(=O)N[C@@H](CCCNC(=N)N)C(N)=O)C(C)C` [GLP-1], the sodium excretion result in test [1] is given as “increased”. Besides, in test [2], the “cardiac contractility (dP/dt)” value was “increase” and the mean arterial pressure entry is on record as “increase”.
